Values of other authors in patent US4771122A, “Novel cyclosporins” (Sandoz Ltd., priority 1985, dated 1988).

Details: reported in literature

## [(D)Pro]^3 -Cyclosporine
  immunosuppressive activity: substantially lacking in immunosuppressive activity
